In US20180311174A1, “NANOPARTICLES COMPRISING A METAL CORE SURROUNDED BY A MONOLAYER FOR LYMPH NODE TARGETING” (Massachusetts Institute of Technology, priority 2015, published 2018):

Experiments:
[1] = Hydrophobic drug loading capacity of NPs (UV-vis/HPLC); format: physicochemical
Source text: In this drug loading strategy, DGKi or other hydrophobic drugs in organic solvent are mixed with an aqueous suspension of amph-NPs and dialyzed to remove the organic solvent, leading to partitioning of the drug into the hydrophobic pockets of the amph-NP ligand shell. This approach allowed one to load drugs that are nearly insoluble in aqueous solutions to high degrees of “solubility” via incorporation into MUS or MUSOT amph-NPs.
More detailed procedures to prepare small molecules-loaded NPs are as follows: Hydrophobic small molecules are dissolved in pure ethanol, and mixed with NPs in a dialysis tube against water. Dialysis tubes containing 100-500 Da molecular weight cut off allows ethanol to permeate while retains most small molecules. […] Loaded drugs were then quantified via absorbance using UV-vis spectrometer.
To test immunomodulatory drug loading capacity, small-molecule drug N-acetylcysteine (NAC) was loaded directly onto the gold core via sulfur-gold covalent bonding. […] The drug loading efficiency was determined by HPLC and UV-vis.
In this drug loading strategy, DGKi or other hydrophobic drugs in organic solvent are mixed with an aqueous suspension of amph-NPs and dialyzed to remove the organic solvent, leading to partitioning of the drug into the hydrophobic pockets of the amph-NP ligand shell. […] Loaded drugs were then quantified via absorbance using UV-vis spectrometer. […]

PD-1 = experiment: cell-based or functional assay
DCs, B and T cells = experiment: Immune cell activation in lymph nodes after s.c. R848; format: in vivo, C57BL/6 mice; conditions: doses above 5 μg, 24 h post injection
Protocol: From there they disperse into the body and drain into the lymph system where they encounter cells sensitive to their adjuvants. Serum inflammatory cytokines were tested one hour post injection given the short half-life of small molecules.
R848 (Resiquimod, a TLR7/8 agonist) was loaded into amph-NPs, and administered subcutaneously at the tail base. Serum was collected 1 hour post injection to evaluate systemic toxicity. Cells in LNs were isolated 24 h post injection to analyze immune cell activation.
Small molecules like R848 diffuse quickly into blood vessels, which may lead to severe systemic adverse effect. An experiment was designed to determine if by using lymph node targeted NPs, systemic adverse effects could be reduced while activation of local lymphocytes remains effective. Systemic toxicity was compared by measuring TNF, IL-6, IL-10, and MCP-1, and measuring activation of lymphatic cells.

Cytotoxic T cells = experiment: T cell proliferation under PD-L1 induced suppression; format: cell-based; conditions: αCD3/CD28 activated
Protocol: Cytotoxic T cells were incubated with αCD3/CD28 activating antibody and either control IgG, or with PD-L1 IgG (PD-1 agonist antibody) to induce T cell suppression, and further treated with vehicle, DGK inhibitor alone, DGK inhibitor loaded amph-NP, or amph-NP alone.

In the case of CN[C@@H](C)C(=O)N[C@H](C(=O)N1CCC[C@H]1c1nc(C(=O)c2ccc(F)cc2)cs1)C1CCCCC1 [LCL161], the “loading in amph-NPs” value [1] is reported as “loads well”.
With PD-L1 IgG (PD-1 agonist antibody) the % proliferating cells (cytotoxic T cells with anti-CD3/CD28, vehicle / no treatment; control IgG gave 71.3%) (PD-1) was 0.98%.
With CCOCc1nc2c(N)nc3ccccc3c2n1CC(C)(C)O [R848, Resiquimod] the “activation of immune cells in LNs” value (DCs, B and T cells) was “activated DCs, B and T cells”.
In the case of Cc1nc2sccn2c(=O)c1CCN1CCC(=C(c2ccccc2)c2ccc(F)cc2)CC1 [diacyl kinase inhibitor], the “% proliferating cells” value (Cytotoxic T cells; PD-L1 IgG (suppressed)) is reported as 2.71% and the “% proliferating cells” value (Cytotoxic T cells; control IgG) is reported as 89.9%.
